Values joined by “and” are separate entries in the source; they are usually repeats but may differ in a detail not shown here. Identical values can stand only once.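 48-hour exposure; five concentrations; linearly interpolated endpoints. TGI: total growth inhibition.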
What was measured:
Experiment in all cases: inhibition of tumour cell growth, NCI panel, 48 h
786-0 renal = system: 786-0 renal
CAKI-1 renal = system: CAKI-1 renal
CCRF-CEM leukemia = system: CCRF-CEM leukemia
DU-145 prostate = system: DU-145 prostate
EKVX NSCLC = system: EKVX NSCLC
HCT-116 colon = system: HCT-116 colon
IGROV1 ovarian = system: IGROV1 ovarian
OVCAR-8 ovarian = system: OVCAR-8 ovarian
SK-MEL-5 melanoma = system: SK-MEL-5 melanoma
UACC-62 melanoma = system: UACC-62 melanoma

SMILES	TGI (786-0 renal)	TGI (CAKI-1 renal)	TGI (CCRF-CEM leukemia)	TGI (DU-145 prostate)	TGI (EKVX NSCLC)	TGI (HCT-116 colon)	TGI (IGROV1 ovarian)	TGI (OVCAR-8 ovarian)	TGI (SK-MEL-5 melanoma)	TGI (UACC-62 melanoma)
COc1ccc(C(O)/C(=N/N)c2nc3ccc(Cl)cc3[nH]c2=O)cc1 (stereo not given)	> 100 µM	> 100 µM	> 100 µM	> 100 µM	> 100 µM	> 100 µM	> 100 µM	> 100 µM	> 100 µM	> 100 µM
CNC(=O)c1n[nH]n(C2CCCCC2)c1=S	> 100 µM	> 100 µM	> 100 µM	> 100 µM	> 100 µM	> 100 µM	> 100 µM	> 100 µM	> 100 µM	> 100 µM
CC1=NN=C(C)C1N=Nc1ccc2nc(C)[nH]c2c1	> 100 µM	> 44.7 µM	> 100 µM	> 100 µM	> 71.3 µM	> 72.5 µM	29.7 µM	> 100 µM	> 63.8 µM	> 79.8 µM
CC(C)Oc1c(C2(c3ccccc3)SCCCS2)c(=O)c1=O	> 100 µM	> 100 µM	> 100 µM	> 100 µM	> 100 µM	> 100 µM	> 100 µM	> 100 µM	> 100 µM	> 100 µM
CC1=CC(=O)CC2(C)CCC(C(C)CC(=O)CC(C)C)CC12OO (stereo not given)	22.7 µM and 26 µM	33.5 µM and 33.4 µM	59.8 µM and 46.6 µM	32.3 µM and 29.5 µM	36.8 µM and 34.3 µM	30.2 µM and 29.7 µM	46.6 µM and 31 µM	90.2 µM and 45.4 µM	35.5 µM and 30.3 µM	31.9 µM and 35.2 µM
CC1(C)OC(=O)C(C)(C)C(=O)O1	> 100 µM	> 100 µM	> 100 µM	> 100 µM	> 100 µM	> 100 µM	> 100 µM	> 100 µM	> 100 µM	> 100 µM
O=C1CCN2c3ccccc3[C@H]3Cc4cccc(c4[C@@H]2C3)CCO1	> 100 µM	> 100 µM	> 100 µM	> 100 µM	> 100 µM	> 100 µM	84.9 µM	> 100 µM	54.3 µM	> 100 µM
CC1(C)CCN2C(=O)C34CCCC3CC21S4 (stereo not given)	> 100 µM	> 100 µM	> 100 µM	> 100 µM	> 100 µM	> 100 µM	> 100 µM	> 100 µM	> 100 µM	> 100 µM
COc1ccc(/C=c2\c(=O)[nH]c3nc4ccccc4c(=O)n23)cc1	> 100 µM	> 100 µM	> 100 µM	> 100 µM	> 100 µM	> 100 µM	> 100 µM	> 100 µM	> 100 µM	> 100 µM

— PubChem BioAssay (NCI)
